Assay results: ChEMBL document CHEMBL5053549, “Discovery of Potent and Novel Dual PARP/BRD4 Inhibitors for Efficient Treatment of Pancreatic Cancer” (J Med Chem, 2021)
pIC50: −log10 of the molar value. Active and inactive are the calls of the source. The calls are words filed in the database; no cut-off is given here.

What was measured:
[1] = target: T1, Bromodomain-containing protein 4 (Homo sapiens, UniProt O60885); assay: Inhibition of recombinant BRD4 (unknown origin) at 0.5 uM incubated for 120 mins by TR-FRET assay relative to control
[2] = target: Poly [ADP-ribose] polymerase 1 (Homo sapiens, UniProt P09874); assay: Inhibition of PARP1 (unknown origin) incubated for 45 mins in presence of biotinylated-NAD+ by microplate reader analysis
Sequence of Poly [ADP-ribose] polymerase 1 (P09874 whole entry): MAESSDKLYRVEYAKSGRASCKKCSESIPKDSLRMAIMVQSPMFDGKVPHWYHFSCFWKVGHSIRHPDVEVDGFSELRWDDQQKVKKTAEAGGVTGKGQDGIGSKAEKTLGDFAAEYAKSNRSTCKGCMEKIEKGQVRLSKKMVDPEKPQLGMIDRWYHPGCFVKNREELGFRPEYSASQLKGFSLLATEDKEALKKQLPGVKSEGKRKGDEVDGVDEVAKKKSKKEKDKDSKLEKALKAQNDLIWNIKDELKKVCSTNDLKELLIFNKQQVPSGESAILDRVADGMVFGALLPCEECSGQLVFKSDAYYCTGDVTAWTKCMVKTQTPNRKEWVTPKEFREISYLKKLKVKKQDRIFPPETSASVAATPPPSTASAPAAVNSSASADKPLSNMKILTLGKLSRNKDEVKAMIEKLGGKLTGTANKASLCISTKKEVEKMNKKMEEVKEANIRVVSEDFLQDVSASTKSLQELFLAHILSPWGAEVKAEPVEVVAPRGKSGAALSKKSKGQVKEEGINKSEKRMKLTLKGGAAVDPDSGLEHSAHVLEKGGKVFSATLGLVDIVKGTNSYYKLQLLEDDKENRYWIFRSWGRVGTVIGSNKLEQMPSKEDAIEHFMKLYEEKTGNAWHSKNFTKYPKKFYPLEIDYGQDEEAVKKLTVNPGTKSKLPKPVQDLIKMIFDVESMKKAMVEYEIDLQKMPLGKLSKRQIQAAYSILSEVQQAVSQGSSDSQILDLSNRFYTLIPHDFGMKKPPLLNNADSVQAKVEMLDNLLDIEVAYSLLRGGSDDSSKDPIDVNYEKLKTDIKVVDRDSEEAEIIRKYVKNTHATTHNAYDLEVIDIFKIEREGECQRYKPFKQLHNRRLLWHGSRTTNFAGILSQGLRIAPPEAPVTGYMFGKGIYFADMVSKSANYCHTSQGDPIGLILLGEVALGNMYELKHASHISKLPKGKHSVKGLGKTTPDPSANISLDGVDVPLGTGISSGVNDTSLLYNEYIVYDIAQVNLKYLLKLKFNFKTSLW

[3] = target: T1, Bromodomain-containing protein 4; assay: Inhibition of recombinant BRD4 (unknown origin) incubated for 120 mins by TR-FRET assay
MDA-MB-231 = assay: Antiproliferative activity against human MDA-MB-231 cells assessed as reduction in cell viability after 7 days; assay type: functional, cell-based; conditions: MDA-MB-231, 168 h
SW1990 [4] = assay: Antiproliferative activity against human SW1990 cells assessed as reduction in cell viability after 4 days by MTT assay; assay type: functional, cell-based; conditions: SW1990, 96 h
SW1990 [5] = assay: Effect on cell cycle progression in human SW1990 cells assessed as reduction in CDK6 expression at 6 uM after 4 days by Western blot analysis; assay type: functional, cell-based; conditions: time 4.0 day
SW1990 [6] = assay: Inhibition of homologous recombinant repair in human SW1990 cells assessed as reduction in Rad51 expression at 6 uM after 4 days by Western blot analysis; assay type: functional, cell-based; conditions: time 4.0 day
CAPAN-1 = assay: Antiproliferative activity against human CAPAN-1 cells assessed as reduction in cell viability after 4 days by MTT assay; assay type: functional, cell-based; conditions: CAPAN-1, 96 h
SW1990 [7] = assay: Inhibition of homologous recombinant repair in human SW1990 cells assessed as reduction in FOXM1 expression at 6 uM after 4 days by Q-PCR analysis; assay type: functional, cell-based; conditions: time 4.0 day
Mus musculus [8] = assay: In vivo inhibition of PARP1 expression in human […] cells xenografted in BALB/c mouse at 45 mg/kg, ip administered for 28 consecutive days by Q-PCR analysis; assay type: functional, organism-based; conditions: time 28.0 day
SW1990 [9] = assay: Inhibition of homologous recombinant repair in human SW1990 cells assessed as reduction in BRCA1 expression at 6 uM after 4 days by Western blot analysis; assay type: functional, cell-based; conditions: time 4.0 day
SW1990 [10] = assay: Effect on cell cycle progression in human SW1990 cells assessed as reduction in PLK1 expression at 6 uM after 4 days by Western blot analysis; assay type: functional, cell-based; conditions: time 4.0 day
SW1990 [11] = assay: Induction of DNA damage in human SW1990 cells assessed as increase in gammaH2AX at 6 uM incubated for 4 days by immunofluorescence assay; assay type: functional, cell-based; conditions: time 4.0 day
Mus musculus [12] = assay: In vivo inhibition of BRD4 expression in human […] cells xenografted in BALB/c mouse at 45 mg/kg, ip administered for 28 consecutive days by immunohistochemical analysis; assay type: functional, organism-based; conditions: time 28.0 day
Mus musculus [13] = assay: In vivo inhibition of BRD4 expression in human […] cells xenografted in BALB/c mouse at 45 mg/kg, ip administered for 28 consecutive days by Q-PCR analysis; assay type: functional, organism-based; conditions: time 28.0 day
Mus musculus [14] = assay: Toxicity in BALB/c mouse xenografted with human SW1990 cells assessed as spleen damage at 45 mg/kg, ip administered for 28 consecutive days by H and E staining based […] microscopic analysis; assay type: organism-based; conditions: in vivo, 672 h, time 28 day
Mus musculus [15] = assay: In vivo inhibition of PARP1 expression in human […] cells xenografted in BALB/c mouse at 45 mg/kg, ip administered for 28 consecutive days by Western blot analysis; assay type: functional, organism-based; conditions: time 28.0 day
Mus musculus [16] = assay: Toxicity in BALB/c mouse xenografted with human SW1990 cells assessed as heart damage at 45 mg/kg, ip administered for 28 consecutive days by H and E staining based […] microscopic analysis; assay type: organism-based; conditions: in vivo, 672 h, time 28 day
SW1990 [17] = assay: Effect on cell cycle progression in human SW1990 cells assessed as reduction in CCND1 expression at 6 uM after 4 days by Q-PCR analysis; assay type: functional, cell-based; conditions: time 4.0 day
Mus musculus [18] = assay: Effect on cell cycle progression in human SW1990 cells xenografted in BALB/c mouse assessed as reduction in CCND1 expression at 45 mg/kg, ip after 4 days by Q-PCR analysis; assay type: functional, organism-based; conditions: time 4.0 day
Mus musculus [19] = assay: Toxicity in BALB/c mouse xenografted with human SW1990 cells assessed as effect on body weight at 45 mg/kg, ip administered for 28 consecutive days; assay type: organism-based; conditions: in vivo, 672 h, time 28 day
Mus musculus [20] = assay: Effect on cell cycle progression in human SW1990 cells xenografted in BALB/c mouse assessed as reduction in PLK1 expression at 45 mg/kg, ip after 4 days by Q-PCR analysis; assay type: functional, organism-based; conditions: time 4.0 day
[21] = target: T1, Bromodomain-containing protein 4; assay: Inhibition of BRD4 expression in human SW1990 cells at 6 uM after 4 days by Q-PCR analysis; assay type: cell-based; conditions: time 4.0 day
CFPAC-1 = assay: Antiproliferative activity against human CFPAC-1 cells assessed as reduction in cell viability after 4 days by MTT assay; assay type: functional, cell-based; conditions: CFPAC-1, 96 h
SW1990 [22] = assay: Inhibition of homologous recombinant repair in human SW1990 cells assessed as reduction in BRCA1 expression at 6 uM after 4 days by Q-PCR analysis; assay type: functional, cell-based; conditions: time 4.0 day
Mus musculus [23] = assay: Effect on cell cycle progression in human SW1990 cells xenografted in BALB/c mouse assessed as reduction in CCND1 expression at 45 mg/kg, ip after 4 days by Western blot analysis; assay type: functional, organism-based; conditions: time 4.0 day
Mus musculus [24] = assay: Toxicity in BALB/c mouse xenografted with human SW1990 cells assessed as lung damage at 45 mg/kg, ip administered for 28 consecutive days by H and E staining based […] microscopic analysis; assay type: organism-based; conditions: in vivo, 672 h, time 28 day
SW1990 [25] = assay: Effect on cell cycle progression in human SW1990 cells assessed as reduction in CCND1 expression at 6 uM after 4 days by Western blot analysis; assay type: functional, cell-based; conditions: time 4.0 day
SW1990 [26] = assay: Induction of DNA damage in human SW1990 cells assessed as tail DNA at 6 uM incubated for 4 days by comet assay; assay type: functional, cell-based; conditions: time 4.0 day
SW1990 [27] = assay: Effect on cell cycle progression in human SW1990 cells assessed as reduction in PLK1 expression at 6 uM after 4 days by Q-PCR analysis; assay type: functional, cell-based; conditions: time 4.0 day
Mus musculus [28] = assay: In vivo inhibition of PARP1 expression in human […] cells xenografted in BALB/c mouse at 45 mg/kg, ip administered for 28 consecutive days by immunohistochemical analysis; assay type: functional, organism-based; conditions: time 28.0 day
Mus musculus [29] = assay: Effect on cell cycle progression in human SW1990 cells xenografted in BALB/c mouse assessed as reduction in CDK6 expression at 45 mg/kg, ip after 4 days by Q-PCR analysis; assay type: functional, organism-based; conditions: time 4.0 day
SW1990 [30] = assay: Induction of autophagy in human SW1990 cells assessed as reduction in p62 expression at 6 uM incubated for 4 days by immunofluorescence assay; assay type: functional, cell-based; conditions: time 4.0 day
SW1990 [31] = assay: Induction of autophagy in human SW1990 cells assessed as increase in LC3B expression at 6 uM incubated for 4 days by immunofluorescence assay; assay type: functional, cell-based; conditions: time 4.0 day
Mus musculus [32] = assay: Toxicity in BALB/c mouse xenografted with human SW1990 cells assessed as kidney damage at 45 mg/kg, ip administered for 28 consecutive days by H and E staining based […] microscopic analysis; assay type: organism-based; conditions: in vivo, 672 h, time 28 day
SW1990 [33] = assay: Inhibition of homologous recombinant repair in human SW1990 cells assessed as reduction in Rad51 expression at 6 uM after 4 days by Q-PCR analysis; assay type: functional, cell-based; conditions: time 4.0 day
Mus musculus [34] = assay: In vivo inhibition of BRD4 expression in human […] cells xenografted in BALB/c mouse at 45 mg/kg, ip administered for 28 consecutive days by Western blot analysis; assay type: functional, organism-based; conditions: time 28.0 day
[35] = target: T1, Bromodomain-containing protein 4; assay: Inhibition of BRD4 expression in human SW1990 cells at 6 uM after 4 days by Western blot analysis; assay type: cell-based; conditions: time 4.0 day
SW1990 [36] = assay: Effect on cell cycle progression in human SW1990 cells assessed as reduction in CDK6 expression at 6 uM after 4 days by Q-PCR analysis; assay type: functional, cell-based; conditions: time 4.0 day
Mus musculus [37] = assay: Toxicity in BALB/c mouse xenografted with human SW1990 cells assessed as liver damage at 45 mg/kg, ip administered for 28 consecutive days by H and E staining based […] microscopic analysis; assay type: organism-based; conditions: in vivo, 672 h, time 28 day
Mus musculus [38] = assay: Effect on cell cycle progression in human SW1990 cells xenografted in BALB/c mouse assessed as reduction in PLK1 expression at 45 mg/kg, ip after 4 days by Western blot analysis; assay type: functional, organism-based; conditions: time 4.0 day
Mus musculus [39] = assay: Effect on cell cycle progression in human SW1990 cells xenografted in BALB/c mouse assessed as reduction in CDK6 expression at 45 mg/kg, ip after 4 days by Western blot analysis; assay type: functional, organism-based; conditions: time 4.0 day

CC[C@@H]1C(=O)N(C)c2cnc(Nc3ccc(-c4nc5c(C(N)=O)cccc5[nH]4)cc3OC)nc2N1Cc1ccc(OC)cc1OC
inhibition [1]: 17%
pIC50 [2]: 6.24

CC[C@@H]1C(=O)N(C)c2cnc(Nc3ccc(CC(=O)NCc4nc5c(C(N)=O)cccc5[nH]4)cc3OC)nc2N1C1CCCC1
pIC50 [2]: 6.30
pIC50 [3]: 6.56

CCOc1cc(-c2nc3c(C(N)=O)cccc3[nH]2)ccc1Nc1ncc2c(n1)N(C1CCCC1)[C@H](CC)C(=O)N2C
pIC50 (MDA-MB-231): 6.10
pIC50 (SW1990 [4]): 5.61
inhibition [1]: 86%
pIC50 [2]: 6.51

CC[C@@H]1C(=O)N(C)c2cnc(Nc3ccc(-c4nc5c(C(N)=O)cccc5[nH]4)cc3OC)nc2N1Cc1cccc(C(F)(F)F)c1
inhibition [1]: 17%
pIC50 [2]: 5.76

CC[C@@H]1C(=O)N(C)c2cnc(Nc3ccc(C(C)c4nc5c(C(N)=O)cccc5[nH]4)cc3OC)nc2N1C1CCCC1 (some centres not stated)
inhibition [1]: 74%
pIC50 [2]: 6.63

CC[C@@H]1C(=O)N(C)c2cnc(Nc3cccc(-c4nc5c(C(N)=O)cccc5[nH]4)c3)nc2N1C1CCCC1
pIC50 [2]: 6.81
pIC50 [3]: 6.16

CC[C@@H]1C(=O)N(C)c2cnc(Nc3ccc(-c4nc5c(C(N)=O)cccc5[nH]4)cc3)nc2N1C1CCCC1
pIC50 (MDA-MB-231): 6.08
pIC50 (SW1990 [4]): 5.55
pIC50 [2]: 7.37
pIC50 [3]: 6.07

O=C(c1cc(Cc2n[nH]c(=O)c3ccccc23)ccc1F)N1CCN(C(=O)C2CC2)CC1 [OLAPARIB]
Activity (SW1990 [5]): inactive
inhibition (SW1990 [6]): inactive
pIC50 (CAPAN-1): 5.07
inhibition (SW1990 [7]): inactive
Activity (Mus musculus [8]): inactive
pIC50 (MDA-MB-231): 5.07
inhibition (SW1990 [9]): inactive
Activity (SW1990 [10]): inactive
Activity (SW1990 [11]): inactive
Activity (Mus musculus [12]): inactive
Activity (Mus musculus [13]): inactive
Activity (Mus musculus [14]): Non-Toxic
Activity (Mus musculus [15]): inactive
Activity (Mus musculus [16]): Non-Toxic
Activity (SW1990 [17]): inactive
Activity (Mus musculus [18]): inactive
Activity (Mus musculus [19]): Non-Toxic
pIC50 (SW1990 [4]): 5.24
Activity (Mus musculus [20]): inactive
inhibition [21]: inactive
pIC50 (CFPAC-1): 4.86
inhibition (SW1990 [22]): inactive
Activity (Mus musculus [23]): inactive
Activity (Mus musculus [24]): Non-Toxic
Activity (SW1990 [25]): inactive
Activity (SW1990 [26]): Active
Activity (SW1990 [27]): inactive
Activity (Mus musculus [28]): inactive
Activity (Mus musculus [29]): inactive
Activity (SW1990 [30]): inactive
Activity (SW1990 [31]): inactive
Activity (Mus musculus [32]): Non-Toxic
inhibition (SW1990 [33]): inactive
Activity (Mus musculus [34]): inactive
inhibition [35]: inactive
Activity (SW1990 [36]): inactive
Activity (Mus musculus [37]): Non-Toxic
Activity (Mus musculus [38]): inactive
Activity (Mus musculus [39]): inactive
